Source: US20070225253A1, “Use of a trioxopyrimidine for the treatment and prevention of bronchial inflammatory diseases” (priority 2004, published 2007)

Key:
[1] = tested on: allergen-induced airway inflammation and bronchial hyperresponsiveness; assay: Mouse model of asthma (OVA), inhalation, short exposure challenge; type: in vivo, mice; conditions: inhalation of 40 mg/ml solution in pure DMSO, short-term exposure, vs DMSO alone
Description: In order to study the modulation of airway inflammation by intraperitoneal injection of Compound I, mice were sensitized with 10 μg ovalbumin alumin-adsorbed (aluminject, perbio, Erembodegem, Belgium) injected intraperitonealy at days 0 and 7 and were subsequently exposed to OVA 1% or PBS aerosols for 30 minutes from day 21 to 24. Intraperitoneal injections were performed 30 min before OVA inhalations. The different injected formulations were: cremophor 10%-DMSO 10%-PBS 80%- Compound I30 mg/kg (suspension); cremophor 10%-DMSO 10%-PBS 80%- Compound I3.75 mg/kg (solution); HPβCD 200 mM Compound I 7.5 mg/kg (solution); HPβCD 200 mM. All results were compared to mice sensitized and exposed to PBS and OVA treated with PBS injected intraperitonealy. In order to study the modulation of airway inflammation by inhaled Compound I, mice were sensitized as described previously. Two protocols referred to as short exposure challenge and long-term exposure challenge were used. In the short exposure challenge, mice were exposed to aerosols of Compound I-complex at concentrations of 0.03 and 0.3 mg/ml of active compound in aqueous solution of from day 21 to 27 during 30 min in a Plexiglas exposure chamber (30×20×15 cm). Mice were exposed to OVA aerosols 30 minutes after the Compound I inhalation from day 23 to 27. In the so called long-term inhalation challenge, mice were exposed to aerosols of Compound Iat concentrations of 0.03 and 0.3 mg/ml complexed with HPβCD in an aqueous solution during 30 min five days odd weeks and to OVA aerosols 3 days odd weeks for 11 weeks. No inhalations were performed during even weeks.
The aerosol were produced by using an ultrasonic nebuliser SYSTAM (Systeme Assistance Medical, Le Ledat, France), the vibration frequency of which is 2.4 MHz with variable vibration intensity and ventilation levels. Vibration intensity was fixed in position 6 and the ventilation level was 25(ν1/2)1/min.
(§1) Twenty-four hours after the last allergen exposure, the bronchial hyper responsiveness was determined by measuring the Penh using a barometric plethysmograph as proposed by Hamelmann, E., et al., Am. J Respir. Crit. Care Med. 156 (1997) 766-775). The Penh was measured at baseline and 5 min after the inhalation of increasing doses (25, 50, 75 and 100 mM) of methacholine (Mch).
(§2) Immediately after the assessment of airway responsiveness, mice were sacrificed and 1 ml of PBS free of ionised calcium and magnesium but supplemented with 0.05 mM sodium EDTA was instilled 4 times via a tracheal cannula and recovered by gentle manual aspiration. The recovered bronchoalveolar lavage fluid (BAL) was centrifuged (1800 rpm for 10 min at 4° C.). […] A value from 0 to 3 per criteria was adjudged to each tissue section scored. […]

[2] = tested on: allergen-induced airway inflammation; assay: Mouse model of asthma (OVA), intraperitoneal injection of Compound I; type: in vivo, mice; conditions: 3.75 to 30 mg/kg
Description: In order to study the modulation of airway inflammation by intraperitoneal injection of Compound I, mice were sensitized with 10 μg ovalbumin alumin-adsorbed (aluminject, perbio, Erembodegem, Belgium) injected intraperitonealy at days 0 and 7 and were subsequently exposed to OVA 1% or PBS aerosols for 30 minutes from day 21 to 24. Intraperitoneal injections were performed 30 min before OVA inhalations. The different injected formulations were: cremophor 10%-DMSO 10%-PBS 80%- Compound I30 mg/kg (suspension); cremophor 10%-DMSO 10%-PBS 80%- Compound I3.75 mg/kg (solution); HPβCD 200 mM Compound I 7.5 mg/kg (solution); HPβCD 200 mM. […]
as §1, with “J Respir. Crit. Care Med. 156 (1997) 766-775).” left out
as §2, with “aspiration.” for “aspiration. The recovered bronchoalveolar lavage fluid (BAL) was centrifuged (1800 rpm for 10 min at 4° C.).”

SMILES: O=C1NC(=O)C(c2ccc(-c3ccccc3)cc2)(N2CCN(c3ccc([N+](=O)[O-])cc3)CC2)C(=O)N1 [Compound I, 5-Biphenyl-4-yl-5-[4-(4-nitro-phenyl)-piperazin-1-yl]pyrimidine-2,4,6-trione]
- BAL eosinophils ([1]; p<0.005): significant decrease
- peribronchial inflammation scores ([1]; p<0.01): significant decrease
- bronchial hyperresponsiveness ([1]; p<0.05): significant decrease
- peribronchial inflammation scores ([2]; equal efficacy of all tested formulations): significantly lowered
- allergen-induced airway eosinophilic inflammation in BAL ([2]; solution or precipitate, vs placebo): lowered
